Marks after values point to notes of the source that are not given here.
How the values were obtained:
dopaminergic neurons [1] = assay: Survival of dopaminergic neurons exposed to 6-OHDA; type: cell-based, rat
Experimental: Dopaminergic neurons (DN) (a and b) from day 15 rat embryos grown at a density of 150,000 cells/cm^2 for six days without or with various concentrations of peptide on 24-well cell culture plates coated with poly-D-lysine were exposed to 100 μM 6-OHDA for two hours. Medium was changed and various concentrations of FGLd were added. The neurons were grown for another 24 hours before the cultures they were fixed and immunostained for tyrosine hydroxylase.
Dopaminergic neurons were prepared from Wistar rat embryos at embryonic day 15 (Charles River, Sulzfeld, Germany or Møllegaard, Denmark). A pregnant rat was sacrificed and the uterus was taken out and kept on ice in Hank's balanced salt solution (HBSS; Gibco, BRL). The ventral part of the mesencephalon was dissected from the embryonic brains, homogenised on ice in Gey's balanced salt solution (GBSS; Gibco, BRL) supplemented with 5 g glucose/l (Sigma-Aldrich) and thereafter trypsinised. The dissociated cells were washed in the presence of DNAse 1 and soybean trypsin inhibitor (Sigma-Aldrich).
For the survival assay isolated neurons were seeded at a density of 150,000 cells/cm^2 in 24-well cell culture plates coated with poly-D-lysine as described above. The neurons were left to differentiate for six days without or with various concentrations of the FGL peptide, after which 6-OHDA was added at a concentration of 100 μM for two hours. A stock solution was prepared by dissolving 6-OHDA to a concentration of 10 mM in 0.1% (w/v) sodium metabisulfite in order to prevent oxidation. After two hours with 6-OHDA, the medium was changed to Neurobasal medium with supplements and peptide, and the cell cultures were further incubated for 24 hours, fixed and immunostained for tyrosine hydroxylase. 98 images for each experimental condition in each individual experiment were automatically recorded as described for the dopaminergic neurite outgrowth assay below.

dopaminergic neurons [2] = assay: Neurite outgrowth, dopaminergic neurons; type: cell-based, rat; conditions: 72 h; for Effect on Neurite Length (Percent Increase vs. Control): DN E14
Experimental: The cultures were subsequently immunostained for tyrosine hydroxylase. Hippocampal neurons and CGN were plated at a density of 10,000 cells/cm^2 on 8-well permanox chamber slides and incubated for 24 hours in the presence of various concentrations of FGLd. Subsequently the neurons were immunostained for GAP-43. Results from at least five independent experiments for each neuronal culture are shown as percentage ±SEM with the untreated controls set at 100%. *p<0.05, **p<0.01, ***p<0.001 when compared to the controls.
After 72 hours of incubation, the neurons were fixed with 4% (v/v) formaldehyde and immunostained using a primary mouse monoclonal antibody against tyrosine hydroxylase and secondary biotinylated sheep anti-mouse antibodies followed by incubation with peroxidase conjugated streptavidin. 98 images for each experimental condition in each individual experiment were automatically recorded using a computerised microscope workstation described by Walmod et al. (2002) Toxicol Appl Pharmacol. 181:1-15. Briefly, the workstation consisted of an Eclipse TE 300 inverted microscope (Nikon, Tokyo, Japan) equipped with a motorised, movable microscope stage (LUDL Electronic Production Ltd, Hawthorne, N.Y., USA), a 10× objective and a 1100 analogue b/w CCD video camera (DFA, Denmark). A software package Prima developed at the Protein Laboratory (Copenhagen University, Denmark) was used to make a stereologically based determination of neurite length according to Rønn et al., (2000) J Neurosci Methods. 100:25-32).

hippocampal neurons [3] = assay: FM 1-43 destaining (presynaptic vesicle turnover) in hippocampal neurons; type: cell-based, rat
Experimental: The values were compared using an unpaired t-test. *p=0.04 (1 h) and **p=0.0032 (48 h). FGLcontrol is a control peptide consisting the sequence […] (SEQ ID NO: 147).
The effects of FGLd on vesicle turnover was estimated in primary cultures of hippocampal neurons from embryonic rats (E19). The cultures were prepared as above. Following 13-16 days in vitro, FGLd was added to the cultures and incubated for 1, 24 or 48 hours. After 48 hours of incubation, the FGFR-inhibitor (SU 5402) was added simultaneously with FGLd to some of the cultures.
After treatment with FGLd the neurons were labeled with the fluorescent membrane probe FM 1-43 as described by Kiryushko et al (2003) J Biol. Chem. 278:12325-34. The rate of FM 1-43 release (destaining of cells) evoked by depolarisation with 90 mM potassium was then evaluated by a time-lapse image acquisition using the Radiance 2000 scanning system and a Nikon eclipse TE200 confocal microscopy.

hippocampal neurons [4] = assay: Synapse formation, synaptophysin/GAP-43 double-immunostaining; type: cell-based, rat
Experimental: The effect of FGLd on synapse formation was further evaluated using double-immunostaining of neurites and synapses in primary embryonic (E19) hippocampal neurons grown in culture for 13 days. Cells were incubated with FGLd for 48 or 96 hours, before fixation and immunostaining. The synapses were detected by antibodies against synaptophysin and the neyrites were labelled by antibodies against the growth-associated protein-43 (GAP-43—also called B-50 or F1). The immunostaining was visualised and quantified by confocal fluorescence microscopy as described by Rønn et al. (2000) (op. cit.).

rat pups = assay: Negative Geotaxis Reflex in rat pups; type: in vivo; conditions: PND 6; intranasal 2.6 μg per pup at PND 1, 2, 3
Experimental: The number of litters of each treatment group was six. The results were analysed using one-way ANOVA (FPND6=5.14; PPND6=0.008). […] FGLcontrol as above.
Sensory Motor Control Development study.

[5] = system: cerebellar granule neurons (CGN); assay: Survival of CGN induced to undergo apoptosis by low KCl; conditions: for Neuronal Survival (% of Control): Low K+ (5 mM)
Experimental: Cerebella granular meurons (CGN) (e and f) from postnatal day 7 rats were grown at a density of 100,000 cells/cm^2 for 7 days on poly-L-lysine coated microtiter plates in the medium containing 40 mM KCl, then the medium was substituted to a 5 mM KCl containing medium supplemented with various concentrations of FGLd.
For the experiments cerebellar tissue was dissected in modified Krebs-Ringer solution kept on ice, and treated as described for the hippocampal neurons above. All cell cultures were incubated at 37° C. in a humidified atmosphere containing 5% CO2.
Primary cultures of CGN were plated at a density of 100,000 cells/cm^2 on poly-L-lysine coated 8-well permanox slides in Neurobasal-A medium (Gibco, BRL) supplemented with 2% (v/v) B27, 0.5% (v/v) glutamax, 100 U/ml penicillin, 100 μg/ml streptomycin and KCl, making the final concentration of KCl in the medium 40 mM. 24 hours after plating, cytosine-β-D-arabinofuranoside (Ara-C; Sigma-Aldrich) was added to a final concentration of 10 μM to avoid proliferation of glial cells, after which the neurons were allowed to differentiate for further six days at 37° C. Apoptotic cell death was induced by washing twice and changing the medium to Basal Medium Eagle (BME; Gibco BRL) supplemented with 1% (v/v) glutamine, 100 U/ml penicillin and 100 μg/ml streptomycin, 3.5 g D-glucose/l and 1% (v/v) sodium pyruvate (Gibco BRL) together with various concentrations of peptide. Thereby the concentration of potassium in the cultures was reduced to 5 mM KCl. Two days after induction of apoptosis, the cells were fixed with 4% formaldehyde and stained with Hoechst 33258 as described for the survival assay employing hippocampal neurons.

FGLd: MAP-type dendrimer of FGL; dendrimeric tetramer of the FGL peptide (EVYVVAENQQGKSKA)
Neuronal Survival (% of Control) (dopaminergic neurons [1]; 6-OHDA, DA (E14), 1 μg/mL): 143%* % of Control
survival of dopaminergic neurons treated with 6-OHDA, maximal rescue (dopaminergic neurons [1]; at 1 μg/ml, 6-OHDA-treated control = 100%): approximately 135%
Effect on Neurite Length (Percent Increase vs. Control) (dopaminergic neurons [2]; 0.04 μg/mL): 12%
Effect on Neurite Length (Percent Increase vs. Control) (dopaminergic neurons [2]; 0.2 μg/mL): 23%
Effect on Neurite Length (Percent Increase vs. Control) (dopaminergic neurons [2]; 1 μg/mL): 24%
Effect on Neurite Length (Percent Increase vs. Control) (dopaminergic neurons [2]; 5 μg/mL): 13%
maximal average neurite length, dopaminergic neurons (dopaminergic neurons [2]; at 1 μg/ml, untreated control = 100%): 125%
rate of FM 1-43 unloading (hippocampal neurons [3]; 5 μg/ml for any time period): Neither treatment with 5 μg/ml FGLd for any time period, nor the treatment with 20 μg/ml for 24 hours had any effect
rate of FM 1-43 destaining (hippocampal neurons [3]; 20 μg/ml for 1 h, control 0.008): 0.016 s⁻¹
rate of FM 1-43 destaining (hippocampal neurons [3]; 20 μg/ml for 24 h): did not result in a significant effect
rate of FM 1-43 destaining (hippocampal neurons [3]; 20 μg/ml for 48 h, control 0.013): 0.028 s⁻¹
increase in the number of synaptophysin positive spots per 100 μm length of neurite (hippocampal neurons [4]; 20 μg/ml for 48 and 96 hours): approximately 20%
number of synaptophysin positive spots per 100 μm length of neurite (hippocampal neurons [4]; 20 μg/ml for 48 hours, control 2.40): 2.96
number of synaptophysin positive spots per 100 μm length of neurite (hippocampal neurons [4]; 20 μg/ml for 96 hours, control 2.73): 3.24
Negative Geotaxis Reflex test, significance vs control and FGLcontrol groups (rat pups): statistically significant effects
Neuronal Survival (% of Control) ([5]; CGN (PND 3-4), 1 μg/mL): 131%* % of Control
Neuronal Survival (% of Control) ([5]; CGN (PND 3-4), 5 μg/mL): 110%* % of Control
Neuronal Survival (% of Control) ([5]; CGN (PND 3-4), 10 μg/mL): 132%* % of Control
Neuronal Survival (% of Control) ([5]; CGN (PND 3-4), 20 μg/mL): 117%** % of Control
Neuronal Survival (% of Control) ([5]; CGN (PND 7-8), 20 μg/mL): 175%* % of Control
maximal neuroprotection of CGN ([5]; at 1-10 μg/ml, controls grown at low KCl = 100%): 135%

Source: US20090105149A1, “Compounds comprising lpa” (ENKAM PHARMACEUTICALS A/S, priority 2003, published 2009)
